Experimental data published in patent US20240197715A1, “PHARMACEUTICAL COMBINATIONS AND USES THEREOF” (NOVARTIS AG, priority 2022, published 2024).

Experiments:
SW48 [1] = test: CellTiterGlo in vitro viability, 4-day treatment, SW48; type: cell-based
Text: (§1) Growth inhibition %: 0-99=delayed proliferation, 100=growth arrest/stasis, 101-200=reduction in cell number/cell death.

HCT116 = test: CellTiterGlo in vitro viability, 4-day treatment, HCT116; type: cell-based
Text: as §1

WRN = WRN (Homo sapiens, UniProt Q14191); test: WRN ATPase activity assay; type: biochemical; conditions: assay of WO2022/249060
WRN, sequence (Q14191 whole entry): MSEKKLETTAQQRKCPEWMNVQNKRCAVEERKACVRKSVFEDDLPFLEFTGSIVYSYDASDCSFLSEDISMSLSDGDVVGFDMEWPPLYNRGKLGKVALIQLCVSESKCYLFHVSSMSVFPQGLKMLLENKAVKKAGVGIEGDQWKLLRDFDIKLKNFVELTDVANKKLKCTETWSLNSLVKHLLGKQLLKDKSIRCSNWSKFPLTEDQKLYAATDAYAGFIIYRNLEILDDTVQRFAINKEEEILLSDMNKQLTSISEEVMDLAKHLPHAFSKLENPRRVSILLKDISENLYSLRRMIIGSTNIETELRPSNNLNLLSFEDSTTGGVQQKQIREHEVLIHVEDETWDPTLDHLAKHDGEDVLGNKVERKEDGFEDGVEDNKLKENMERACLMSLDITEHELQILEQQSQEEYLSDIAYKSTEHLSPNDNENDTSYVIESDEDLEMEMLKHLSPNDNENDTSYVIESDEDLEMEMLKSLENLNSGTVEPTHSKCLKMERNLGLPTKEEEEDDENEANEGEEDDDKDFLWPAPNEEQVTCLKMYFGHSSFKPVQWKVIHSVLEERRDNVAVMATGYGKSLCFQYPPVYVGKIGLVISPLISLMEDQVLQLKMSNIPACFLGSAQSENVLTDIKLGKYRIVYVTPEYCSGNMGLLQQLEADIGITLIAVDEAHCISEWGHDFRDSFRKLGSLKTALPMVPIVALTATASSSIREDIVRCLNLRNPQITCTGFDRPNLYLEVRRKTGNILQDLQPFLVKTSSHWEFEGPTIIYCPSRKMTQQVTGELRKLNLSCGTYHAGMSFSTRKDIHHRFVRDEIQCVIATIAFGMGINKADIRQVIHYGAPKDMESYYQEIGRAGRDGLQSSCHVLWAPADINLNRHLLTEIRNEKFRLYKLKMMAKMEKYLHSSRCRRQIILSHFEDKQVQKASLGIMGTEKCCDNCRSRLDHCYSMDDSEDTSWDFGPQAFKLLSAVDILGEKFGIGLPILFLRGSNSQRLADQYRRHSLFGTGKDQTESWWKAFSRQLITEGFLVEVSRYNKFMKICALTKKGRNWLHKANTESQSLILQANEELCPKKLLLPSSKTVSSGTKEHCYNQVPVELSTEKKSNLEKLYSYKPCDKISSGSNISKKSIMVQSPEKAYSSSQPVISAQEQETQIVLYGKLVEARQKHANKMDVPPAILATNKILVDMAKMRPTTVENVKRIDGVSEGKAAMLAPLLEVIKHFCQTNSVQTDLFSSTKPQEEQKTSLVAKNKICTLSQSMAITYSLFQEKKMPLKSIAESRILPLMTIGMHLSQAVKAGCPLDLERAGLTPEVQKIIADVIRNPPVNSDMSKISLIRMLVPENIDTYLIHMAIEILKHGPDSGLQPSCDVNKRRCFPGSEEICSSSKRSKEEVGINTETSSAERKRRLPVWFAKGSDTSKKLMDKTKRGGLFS
Text: (§2) According to the assays disclosed in the application PCT/IB2022/054850 published as WO2022/249060, which is hereby incorporated by reference, the compounds were active as shown in Table X

SW48 [2] = test: Proliferation assay SW48; type: cell-based; conditions: Homo sapiens, assay of WO2022/249060
Text: as §2

DLD1-WRN-KO = test: Proliferation assay DLD1-WRN-KO; type: cell-based; conditions: assay of WO2022/249060
Text: as §2

[3] = test system: SW48 colorectal carcinoma cells; test: SW48 xenograft efficacy in nude mice; type: in vivo; conditions: Example 12; trametinib 0.3 mg/kg p.o. qd; BRAF WT SW48
Experimental: All animals were allowed to adapt for 7 days and housed in a pathogen-controlled environment (5 mice/Type III cage) with access to food and water ad libitum and were identified with transponders.
5.0×10^6 SW48 colorectal carcinoma cells were implanted subcutaneously in nude mice (Charles River, Germany). Treatment was initiated when tumors reached 150-200 mm^3 volume. Efficacy studies and tumor response were measured as above.

| Molecule | proliferation of SW48 cells, single agent (SW48 [1]) | other results |
| --- | --- | --- |
| O=c1[nH]cc(F)c(=O)[nH]1 [5-fluorouracil] | inhibited |  |
| C[C@@]1(CO)[C@H](O)CC[C@@]2(C)[C@H]1CC[C@H]1C[C@@H]3C[C@@]12CC[C@]3(O)CO [Aphidicolin, aphidicolin] | inhibited |  |
| CC[C@@]1(O)C(=O)OCc2c1cc1n(c2=O)Cc2cc3ccccc3nc2-1 [Camptothecin, camptothecin] | inhibited |  |
| CCc1c(N2CCN(C(=O)c3ncccc3O)CC2)c(=O)n2nc(C3=CCOCC3)nc2n1CC(=O)Nc1ccc(C(F)(F)F)cc1C [Compound B] | inhibited | proliferation of HCT116 cells, single agent (HCT116): inhibited |
| COc1cccc2c1C(=O)c1c(O)c3c(c(O)c1C2=O)C[C@@](O)(C(=O)CO)C[C@@H]3O[C@H]1C[C@H](N)[C@H](O)[C@H](C)O1 [Doxorubicin, doxorubicin] | inhibited | proliferation of HCT116 cells, single agent (HCT116): inhibited |
| Nc1ccn([C@@H]2O[C@H](CO)[C@@H](O)C2(F)F)c(=O)n1 [Gemcitabin, gemcitabine] | inhibited |  |
| COc1ncc(-c2nc3c(n2C(C)C)[C@H](c2ccc(Cl)cc2)N(c2cc(Cl)cn(C)c2=O)C3=O)c(OC)n1 [HDM201] | to some extent |  |
| C[C@@H]1CN(CC(=O)Nc2ccc3c(c2)Cc2cccc(-c4cc(=O)cc(N5CCOCC5)o4)c2S3)C[C@H](C)O1 [KU-60019] | inhibited |  |
| O=c1cc(N2CCOCC2)oc2c(-c3cccc4c3sc3ccccc34)cccc12 [NU7441 (KU-57788)] | inhibited |  |
| CCc1nc2c(NC(C)(C)C)nc(Nc3ccc4nc(OCCN5CCOCC5)ccc4c3)nc2[nH]1 [QAP1] | inhibited |  |
| CCc1c(N2CCN(C(=O)c3ncccc3O)CC2)c(=O)n2nc(C3=CCN(C(=O)CCC(=O)N[C@H](C(=O)N4C[C@H](O)C[C@H]4C(=O)N[C@@H](C)c4ccc(-c5scnc5C)cc4)C(C)(C)C)CC3)nc2n1CC(=O)Nc1ccc(C(F)(F)F)cc1C [X, (2S,4R)-1-((S)-2-(4-(4-(5-ethyl-6-(4-(3-hydroxypicolinoyl)piperazin-1-yl)-4-(2-((2-methyl-4-(trifluoromethyl)phenyl)amino)-2-oxoethyl)-7-oxo-4,7-dihydro-[1,2,4]triazolo[1,5-a]pyrimidin-2-yl)-3,6-dihydropyridin-1(2H)-yl)-4-oxobutanamido)-3,3-dimethylbutanoyl)-4-hydroxy-N—((S)-1-(4-(4-methylthiazol-5-yl)phenyl)ethyl)pyrrolidine-2-carboxamide] |  | IC50 (WRN): 160 nM; GI50 (SW48 [2]): 3840 nM; GI50 (DLD1-WRN-KO): > 10 µM |
| CCc1c(N2CCN(C(=O)c3ncccc3O)CC2)c(=O)n2nc(C3=CCN(C(=O)[C@H](CC(C)C)NC(=O)[C@@H](O)[C@H](N)Cc4ccccc4)CC3)nc2n1CC(=O)Nc1ccc(C(F)(F)F)cc1C [Y, (2S,3R)-3-amino-N—((S)-1-(4-(5-ethyl-6-(4-(3-hydroxypicolinoyl)piperazin-1-yl)-4-(2-((2-methyl-4-(trifluoromethyl)phenyl)amino)-2-oxoethyl)-7-oxo-4,7-dihydro-[1,2,4]triazolo[1,5-a]pyrimidin-2-yl)-3,6-dihydropyridin-1(2H)-yl)-4-methyl-1-oxopentan-2-yl)-2-hydroxy-4-phenylbutanamide] |  | IC50 (WRN): 140 nM; GI50 (SW48 [2]): 1190 nM; GI50 (DLD1-WRN-KO): > 10 µM |
| CCc1c(N2CCN(C(=O)c3ncccc3O)CC2)c(=O)n2nc(C3=CCN(C(=O)CCCCCOc4ccc5c(c4)C(=O)N(C4CCC(=O)NC4=O)C5)CC3)nc2n1CC(=O)Nc1ccc(C(F)(F)F)cc1C (stereo not drawn) [Z, 2-(2-(1-(6-((2-(2,6-dioxopiperidin-3-yl)-3-oxoisoindolin-5-yl)oxy)hexanoyl)-1,2,3,6-tetrahydropyridin-4-yl)-5-ethyl-6-(4-(3-hydroxypicolinoyl)piperazin-1-yl)-7-oxo-[1,2,4]triazolo[1,5-a]pyrimidin-4(7H)-yl)-N-(2-methyl-4-(trifluoromethyl)phenyl)acetamide] |  | IC50 (WRN): 90 nM; GI50 (SW48 [2]): 1310 nM; GI50 (DLD1-WRN-KO): > 10 µM |
| N.N.[Cl][Pt][Cl] [cisplatin] | inhibited |  |
| CC(=O)Nc1cccc(-n2c(=O)n(C3CC3)c(=O)c3c(Nc4ccc(I)cc4F)n(C)c(=O)c(C)c32)c1 [trametinib] |  | effect on tumor growth [3]: no effect |
| bleomycin | inhibited |  |
